According to patent US20250186405A1, “Compound For Use In Treating Narcolepsy” (Alkermes, Inc., priority 2023, published 2025):

Tested on: subjects with idiopathic hypersomnia (IH)
Experiment: Part 6 POC IH: treatment-emergent adverse events, single doses, crossover
Conditions: N = 8
Experimental: Part 6 consisted of a 4-way, 4-period crossover study design in approximately 8 subjects (2 subjects per sequence; minimum of 4 subjects with 1 subject per sequence). […] Treatments were administered under fasted state.
Subjects were randomized to 1 of 4 sequences. […] No food was given for at least 3 hours after dose administration (i.e., fast can be broken after the 3-hour PK time point is collected). Water was allowed ad libitum except for 1 hour before and 1 hour after study drug administration. Safety assessments including AEs, safety ECGs, vital signs, and clinical laboratory tests were conducted, and plasma PK samples were collected.
Adverse events (AEs) and serious adverse events (SAEs) were monitored continuously until the completion of the study.
Eight subjects with IH were dosed in Part 6 (POC in IH) in a randomized 4-sequence 4-period cross-over design.

CS(=O)(=O)N[C@H]1CCCN2C(=O)COc3ccccc3C3CCC(CC3)OCC12 (stereo partly drawn) [Compound A, N-[(4S,4aR,7α,10α)-1,2,3,4,4a,5,7,8,9,10,16,17-dodecahydro-17-oxo-7,10-ethanopyrido[1,2-d][1,7,4]benzodioxaazacyclotridecin-4-yl]methanesulfonamide]
AE Leading to Study Drug Discontinuation (5 mg single dose): 0 n (%) | Any SAEs (5 mg single dose): 0 n (%) | Any TEAE (5 mg single dose): 6 (75.0) n (%) | Death (5 mg single dose): 0 n (%) | Drug Related TEAE by Preferred Term: Cold sweat (5 mg single dose): 0 n (%) | Drug Related TEAE by Preferred Term: Dizziness (5 mg single dose): 0 n (%) | Drug Related TEAE by Preferred Term: Dysuria (5 mg single dose): 0 n (%) | Drug Related TEAE by Preferred Term: Feeling jittery (5 mg single dose): 0 n (%) | Drug Related TEAE by Preferred Term: Insomnia (5 mg single dose): 0 n (%) | Drug Related TEAE by Preferred Term: Micturition urgency (5 mg single dose): 1 (12.5) n (%) | Drug Related TEAE by Preferred Term: Middle insomnia (5 mg single dose): 1 (12.5) n (%) | Drug Related TEAE by Preferred Term: Palpitations (5 mg single dose): 0 n (%) | Drug Related TEAE by Preferred Term: Pollakiuria (5 mg single dose): 2 (25.0) n (%) | Drug Related TEAE by Preferred Term: Supraventricular extrasystoles (5 mg single dose): 0 n (%) | Drug Related TEAE by Preferred Term: Tachycardia (5 mg single dose): 0 n (%) | Drug Related TEAE by Preferred Term: Visual impairment (5 mg single dose): 0 n (%) | Subjects with at least one TEAE (5 mg single dose): 6 (75.0) n (%) | Subjects with at least one treatment-related TEAE (5 mg single dose): 2 (25.0) n (%) | TEAE by Highest Relationship: Not Related (5 mg single dose): 4 (50.0) n (%) | TEAE by Highest Relationship: Related (5 mg single dose): 2 (25.0) n (%) | TEAE by Highest Severity: Mild (5 mg single dose): 6 (75.0) n (%) | TEAE by Highest Severity: Moderate (5 mg single dose): 0 n (%) | TEAE by Highest Severity: Severe (5 mg single dose): 0 n (%) | TEAE by Preferred Term: Blood creatine phosphokinase increased (5 mg single dose): 0 n (%) | TEAE by Preferred Term: Blood creatinine increased (5 mg single dose): 0 n (%) | TEAE by Preferred Term: Cold sweat (5 mg single dose): 0 n (%) | TEAE by Preferred Term: Dermatitis contact (5 mg single dose): 0 n (%) | TEAE by Preferred Term: Dizziness (5 mg single dose): 2 (25.0) n (%) | TEAE by Preferred Term: Dysuria (5 mg single dose): 0 n (%) | TEAE by Preferred Term: Epistaxis (5 mg single dose): 0 n (%) | TEAE by Preferred Term: Feeling jittery (5 mg single dose): 0 n (%) | TEAE by Preferred Term: Headache (5 mg single dose): 1 (12.5) n (%) | TEAE by Preferred Term: Insomnia (5 mg single dose): 0 n (%) | TEAE by Preferred Term: Micturition urgency (5 mg single dose): 1 (12.5) n (%) | TEAE by Preferred Term: Middle insomnia (5 mg single dose): 1 (12.5) n (%) | TEAE by Preferred Term: Nausea (5 mg single dose): 1 (12.5) n (%) | TEAE by Preferred Term: Neck pain (5 mg single dose): 1 (12.5) n (%) | TEAE by Preferred Term: Palpitations (5 mg single dose): 0 n (%) | TEAE by Preferred Term: Phlebitis (5 mg single dose): 0 n (%) | TEAE by Preferred Term: Pollakiuria (5 mg single dose): 2 (25.0) n (%) | TEAE by Preferred Term: Presyncope (5 mg single dose): 0 n (%) | TEAE by Preferred Term: Skin irritation (5 mg single dose): 1 (12.5) n (%) | TEAE by Preferred Term: Steatorrhoea (5 mg single dose): 0 n (%) | TEAE by Preferred Term: Supraventricular extrasystoles (5 mg single dose): 0 n (%) | TEAE by Preferred Term: Tachycardia (5 mg single dose): 0 n (%) | TEAE by Preferred Term: Urinary tract infection (5 mg single dose): 1 (12.5) n (%) | TEAE by Preferred Term: Vessel puncture site bruise (5 mg single dose): 2 (25.0) n (%) | TEAE by Preferred Term: Vessel puncture site pain (5 mg single dose): 0 n (%) | TEAE by Preferred Term: Visual impairment (5 mg single dose): 0 n (%) | TEAE by Preferred Term: Vomiting (5 mg single dose): 0 n (%) | AE Leading to Study Drug Discontinuation (12 mg single dose): 0 n (%) | Any SAEs (12 mg single dose): 0 n (%) | Any TEAE (12 mg single dose): 5 (62.5) n (%) | Death (12 mg single dose): 0 n (%) | Drug Related TEAE by Preferred Term: Cold sweat (12 mg single dose): 0 n (%) | Drug Related TEAE by Preferred Term: Dizziness (12 mg single dose): 0 n (%) | Drug Related TEAE by Preferred Term: Dysuria (12 mg single dose): 1 (12.5) n (%) | Drug Related TEAE by Preferred Term: Feeling jittery (12 mg single dose): 0 n (%) | Drug Related TEAE by Preferred Term: Insomnia (12 mg single dose): 0 n (%) | Drug Related TEAE by Preferred Term: Micturition urgency (12 mg single dose): 0 n (%) | Drug Related TEAE by Preferred Term: Middle insomnia (12 mg single dose): 1 (12.5) n (%) | Drug Related TEAE by Preferred Term: Palpitations (12 mg single dose): 0 n (%) | Drug Related TEAE by Preferred Term: Pollakiuria (12 mg single dose): 2 (25.0) n (%) | Drug Related TEAE by Preferred Term: Supraventricular extrasystoles (12 mg single dose): 0 n (%) | Drug Related TEAE by Preferred Term: Tachycardia (12 mg single dose): 0 n (%) | Drug Related TEAE by Preferred Term: Visual impairment (12 mg single dose): 0 n (%) | Subjects with at least one TEAE (12 mg single dose): 5 (62.5) n (%) | Subjects with at least one treatment-related TEAE (12 mg single dose): 3 (37.5) n (%) | TEAE by Highest Relationship: Not Related (12 mg single dose): 2 (25.0) n (%) | TEAE by Highest Relationship: Related (12 mg single dose): 3 (37.5) n (%) | TEAE by Highest Severity: Mild (12 mg single dose): 5 (62.5) n (%) | TEAE by Highest Severity: Moderate (12 mg single dose): 0 n (%) | TEAE by Highest Severity: Severe (12 mg single dose): 0 n (%) | TEAE by Preferred Term: Blood creatine phosphokinase increased (12 mg single dose): 1 (12.5) n (%) | TEAE by Preferred Term: Blood creatinine increased (12 mg single dose): 1 (12.5) n (%) | TEAE by Preferred Term: Cold sweat (12 mg single dose): 0 n (%) | TEAE by Preferred Term: Dermatitis contact (12 mg single dose): 0 n (%) | TEAE by Preferred Term: Dizziness (12 mg single dose): 0 n (%) | TEAE by Preferred Term: Dysuria (12 mg single dose): 1 (12.5) n (%) | TEAE by Preferred Term: Epistaxis (12 mg single dose): 0 n (%) | TEAE by Preferred Term: Feeling jittery (12 mg single dose): 0 n (%) | TEAE by Preferred Term: Headache (12 mg single dose): 1 (12.5) n (%) | TEAE by Preferred Term: Insomnia (12 mg single dose): 0 n (%) | TEAE by Preferred Term: Micturition urgency (12 mg single dose): 0 n (%) | TEAE by Preferred Term: Middle insomnia (12 mg single dose): 1 (12.5) n (%) | TEAE by Preferred Term: Nausea (12 mg single dose): 1 (12.5) n (%) | TEAE by Preferred Term: Neck pain (12 mg single dose): 0 n (%) | TEAE by Preferred Term: Palpitations (12 mg single dose): 0 n (%) | TEAE by Preferred Term: Phlebitis (12 mg single dose): 1 (12.5) n (%) | TEAE by Preferred Term: Pollakiuria (12 mg single dose): 2 (25.0) n (%) | TEAE by Preferred Term: Presyncope (12 mg single dose): 1 (12.5) n (%) | TEAE by Preferred Term: Skin irritation (12 mg single dose): 0 n (%) | TEAE by Preferred Term: Steatorrhoea (12 mg single dose): 1 (12.5) n (%) | TEAE by Preferred Term: Supraventricular extrasystoles (12 mg single dose): 0 n (%) | TEAE by Preferred Term: Tachycardia (12 mg single dose): 0 n (%) | TEAE by Preferred Term: Urinary tract infection (12 mg single dose): 0 n (%) | TEAE by Preferred Term: Vessel puncture site bruise (12 mg single dose): 0 n (%) | TEAE by Preferred Term: Vessel puncture site pain (12 mg single dose): 0 n (%) | TEAE by Preferred Term: Visual impairment (12 mg single dose): 0 n (%) | TEAE by Preferred Term: Vomiting (12 mg single dose): 0 n (%) | AE Leading to Study Drug Discontinuation (25 mg single dose): 0 n (%)
